Reference: PMC10006169, “A phase I trial of LXS196, a protein kinase C (PKC) inhibitor, for metastatic uveal melanoma” (British Journal of Cancer, 2023)
Where “and” joins values, the source holds several entries; their conditions need not be identical. Equal values may be shown once.

Tested on: patients with MUM
Experiment: Adverse events suspected to be study drug related (NCI-CTCAE v4.03)
Assay type: in vivo, human
Conditions: for Alanine aminotransferase increased / Aspartate aminotransferase increased / Asthenia / Blood creatinine increased / Constipation / Diarrhoea / Dry skin / Fatigue / Hypotension / Nausea / Number of patients with ≥1 adverse event / Rash / Vomiting: suspected drug related
Procedure: Routine safety assessments, including laboratory assessments, physical examinations, vital signs and electrocardiograms (ECGs), were conducted at regular intervals throughout the study and more frequently as needed following patient assessment by the treating physician. Adverse events (AEs) were assessed continuously according to the National Cancer Institute Common Terminology Criteria for Adverse Events (NCI-CTCAE) v4.03.

[1] = 300 mg BID (RDE), n=18, All grades
[2] = 300 mg BID (RDE), n=18, Grade ≥3
[3] = All LXS196 BID patients, n=30, All grades
[4] = All LXS196 BID patients, n=30, Grade ≥3
[5] = All LXS196 patients, N=68, All grades
[6] = All LXS196 patients, N=68, Grade ≥3

Structure (SMILES): CC1(N)CCN(c2cccnc2NC(=O)c2nc(-c3ncccc3C(F)(F)F)cnc2N)CC1 [LXS196]
- Dry skin, all grades (All BID): 6 (20.0) n (%)
- Dry skin, grade ≥3 (All BID): 0 n (%)
- Fatigue, all grades (All BID): 4 (13.3) n (%)
- Fatigue, grade ≥3 (All BID): 0 n (%)
- Hypotension, all grades (All BID): 7 (23.3) n (%)
- Nausea, all grades (All BID): 19 (63.3) n (%)
- Nausea, grade ≥3 (All BID): 0 n (%)
- Patients with ≥1 AE, all grades (All BID): 28 (93.3) n (%)
- Patients with ≥1 AE, grade ≥3 (All BID): 6 (20.0) n (%)
- Rash, all grades (All BID): 5 (16.7) n (%)
- Rash, grade ≥3 (All BID): 0 n (%)
- Vomiting, all grades (All BID): 9 (30.0) n (%)
- Vomiting, grade ≥3 (All BID): 0 n (%)
- ALT increased, all grades (All QD): 7 (18.4) n (%)
- ALT increased, grade ≥3 (All QD): 2 (5.3) n (%)
- AST increased, all grades (All QD): 5 (13.2) n (%)
- AST increased, grade ≥3 (All QD): 2 (5.3) n (%)
- Asthenia, all grades (All QD): 6 (15.8) n (%)
- Asthenia, grade ≥3 (All QD): 0 n (%)
- Blood creatinine increased, all grades (All QD): 2 (5.3) n (%)
- Blood creatinine increased, grade ≥3 (All QD): 0 n (%)
- Constipation, all grades (All QD): 4 (10.5) n (%)
- Constipation, grade ≥3 (All QD): 0 n (%)
- Diarrhoea, all grades (All QD): 15 (39.5) n (%)
- Diarrhoea, grade ≥3 (All QD): 0 n (%)
- Dry skin, all grades (All QD): 2 (5.3) n (%)
- Dry skin, grade ≥3 (All QD): 0 n (%)
- Fatigue, all grades (All QD): 10 (26.3) n (%)
- Fatigue, grade ≥3 (All QD): 0 n (%)
- Hypotension, all grades (All QD): 8 (21.1) n (%)
- Nausea, all grades (All QD): 26 (68.4) n (%)
- Nausea, grade ≥3 (All QD): 1 (2.6) n (%)
- Patients with ≥1 AE, all grades (All QD): 35 (92.1) n (%)
- Patients with ≥1 AE, grade ≥3 (All QD): 11 (28.9) n (%)
- Rash, all grades (All QD): 3 (7.9) n (%)
- Rash, grade ≥3 (All QD): 0 n (%)
- Vomiting, all grades (All QD): 12 (31.6) n (%)
- Vomiting, grade ≥3 (All QD): 1 (2.6) n (%)
- ALT increased, all grades (All patients): 15 (22.1) n (%)
- ALT increased, grade ≥3 (All patients): 4 (5.9) n (%)
- AST increased, all grades (All patients): 11 (16.2) n (%)
- AST increased, grade ≥3 (All patients): 4 (5.9) n (%)
- Asthenia, all grades (All patients): 13 (19.1) n (%)
- Asthenia, grade ≥3 (All patients): 0 n (%)
- Blood creatinine increased, all grades (All patients): 7 (10.3) n (%)
- Blood creatinine increased, grade ≥3 (All patients): 0 n (%)
- Constipation, all grades (All patients): 7 (10.3) n (%)
- Constipation, grade ≥3 (All patients): 0 n (%)
- Diarrhoea, all grades (All patients): 31 (45.6) n (%)
- Diarrhoea, grade ≥3 (All patients): 1 (1.5) n (%)
- Dry skin, all grades (All patients): 8 (11.8) n (%)
- Dry skin, grade ≥3 (All patients): 0 n (%)
- Fatigue, all grades (All patients): 14 (20.6) n (%)
- Fatigue, grade ≥3 (All patients): 0 n (%)
- Hypotension, all grades (All patients): 15 (22.1) n (%)
- Hypotension, grade ≥3 (All patients): 6 (8.8) n (%)
- Nausea, all grades (All patients): 45 (66.2) n (%)
- Nausea, grade ≥3 (All patients): 1 (1.5) n (%)
- Patients with ≥1 AE, all grades (All patients): 63 (92.6%) n (%) and 63 (92.6) n (%)
- Patients with ≥1 AE, grade ≥3 (All patients): 17 (25.0%) n (%) and 17 (25.0) n (%)
- Rash, all grades (All patients): 8 (11.8) n (%)
- Rash, grade ≥3 (All patients): 0 n (%)
- Vomiting, all grades (All patients): 21 (30.9) n (%)
- Vomiting, grade ≥3 (All patients): 1 (1.5) n (%)
- Alanine aminotransferase increased (200 mg BID, n=6, All grades): 0 n (%)
- Aspartate aminotransferase increased (200 mg BID, n=6, All grades): 0 n (%)
- Asthenia (200 mg BID, n=6, All grades): 1 (16.7) n (%)
- Blood creatinine increased (200 mg BID, n=6, All grades): 3 (50.0) n (%)
- Constipation (200 mg BID, n=6, All grades): 0 n (%)
- Diarrhoea (200 mg BID, n=6, All grades): 2 (33.3) n (%)
- Dry skin (200 mg BID, n=6, All grades): 1 (16.7) n (%)
- Fatigue (200 mg BID, n=6, All grades): 0 n (%)
- Hypotension (200 mg BID, n=6, All grades): 0 n (%)
- Nausea (200 mg BID, n=6, All grades): 2 (33.3) n (%)
- Number of patients with ≥1 adverse event (200 mg BID, n=6, All grades): 5 (83.3) n (%)
- Rash (200 mg BID, n=6, All grades): 0 n (%)
- Vomiting (200 mg BID, n=6, All grades): 0 n (%)
- Alanine aminotransferase increased (200 mg BID, n=6, Grade ≥3): 0 n (%)
- Aspartate aminotransferase increased (200 mg BID, n=6, Grade ≥3): 0 n (%)
- Asthenia (200 mg BID, n=6, Grade ≥3): 0 n (%)
- Blood creatinine increased (200 mg BID, n=6, Grade ≥3): 0 n (%)
- Constipation (200 mg BID, n=6, Grade ≥3): 0 n (%)
- Diarrhoea (200 mg BID, n=6, Grade ≥3): 0 n (%)
- Dry skin (200 mg BID, n=6, Grade ≥3): 0 n (%)
- Fatigue (200 mg BID, n=6, Grade ≥3): 0 n (%)
- Hypotension (200 mg BID, n=6, Grade ≥3): 0 n (%)
- Nausea (200 mg BID, n=6, Grade ≥3): 0 n (%)
- Number of patients with ≥1 adverse event (200 mg BID, n=6, Grade ≥3): 0 n (%)
- Rash (200 mg BID, n=6, Grade ≥3): 0 n (%)
- Vomiting (200 mg BID, n=6, Grade ≥3): 0 n (%)
- Alanine aminotransferase increased [1]: 5 (27.8) n (%)
- Aspartate aminotransferase increased [1]: 3 (16.7) n (%)
- Asthenia [1]: 4 (22.2) n (%)
- Blood creatinine increased [1]: 2 (11.1) n (%)
- Constipation [1]: 1 (5.6) n (%)
- Diarrhoea [1]: 11 (61.1) n (%)
- Dry skin [1]: 4 (22.2) n (%)
- Fatigue [1]: 3 (16.7) n (%)
- Hypotension [1]: 3 (16.7) n (%)
- Nausea [1]: 14 (77.8) n (%)
- Number of patients with ≥1 adverse event [1]: 17 (94.4) n (%)
- Rash [1]: 4 (22.2) n (%)
- Vomiting [1]: 7 (38.9) n (%)
- Alanine aminotransferase increased [2]: 1 (5.6) n (%)
- Aspartate aminotransferase increased [2]: 1 (5.6) n (%)
- Asthenia [2]: 0 n (%)
- Blood creatinine increased [2]: 0 n (%)
- Constipation [2]: 0 n (%)
- Diarrhoea [2]: 1 (5.6) n (%)
- Dry skin [2]: 0 n (%)
- Fatigue [2]: 0 n (%)
- Hypotension [2]: 0 n (%)
- Nausea [2]: 0 n (%)
- Number of patients with ≥1 adverse event [2]: 2 (11.1) n (%)
- Rash [2]: 0 n (%)
- Vomiting [2]: 0 n (%)
- Alanine aminotransferase increased (400 mg BID, n=6, All grades): 3 (50.0) n (%)
- Aspartate aminotransferase increased (400 mg BID, n=6, All grades): 3 (50.0) n (%)
- Asthenia (400 mg BID, n=6, All grades): 2 (33.3) n (%)
- Blood creatinine increased (400 mg BID, n=6, All grades): 0 n (%)
- Constipation (400 mg BID, n=6, All grades): 2 (33.3) n (%)
- Diarrhoea (400 mg BID, n=6, All grades): 3 (50.0) n (%)
- Dry skin (400 mg BID, n=6, All grades): 1 (16.7) n (%)
- Fatigue (400 mg BID, n=6, All grades): 1 (16.7) n (%)
- Hypotension (400 mg BID, n=6, All grades): 4 (66.7) n (%)
- Nausea (400 mg BID, n=6, All grades): 3 (50.0) n (%)
- Number of patients with ≥1 adverse event (400 mg BID, n=6, All grades): 6 (100) n (%)
- Rash (400 mg BID, n=6, All grades): 1 (16.7) n (%)
- Vomiting (400 mg BID, n=6, All grades): 2 (33.3) n (%)
- Alanine aminotransferase increased (400 mg BID, n=6, Grade ≥3): 1 (16.7) n (%)
- Aspartate aminotransferase increased (400 mg BID, n=6, Grade ≥3): 1 (16.7) n (%)
- Asthenia (400 mg BID, n=6, Grade ≥3): 0 n (%)
- Blood creatinine increased (400 mg BID, n=6, Grade ≥3): 0 n (%)
- Constipation (400 mg BID, n=6, Grade ≥3): 0 n (%)
- Diarrhoea (400 mg BID, n=6, Grade ≥3): 0 n (%)
- Dry skin (400 mg BID, n=6, Grade ≥3): 0 n (%)
- Fatigue (400 mg BID, n=6, Grade ≥3): 0 n (%)
- Hypotension (400 mg BID, n=6, Grade ≥3): 1 (16.7) n (%)
- Nausea (400 mg BID, n=6, Grade ≥3): 0 n (%)
- Number of patients with ≥1 adverse event (400 mg BID, n=6, Grade ≥3): 4 (66.7) n (%)
- Rash (400 mg BID, n=6, Grade ≥3): 0 n (%)
- Vomiting (400 mg BID, n=6, Grade ≥3): 0 n (%)
- Alanine aminotransferase increased [3]: 8 (26.7) n (%)
- Aspartate aminotransferase increased [3]: 6 (20.0) n (%)
- Asthenia [3]: 7 (23.3) n (%)
- Blood creatinine increased [3]: 5 (16.7) n (%)
- Constipation [3]: 3 (10.0) n (%)
- Diarrhoea [3]: 16 (53.3) n (%)
- Dry skin [3]: 6 (20.0) n (%)
- Fatigue [3]: 4 (13.3) n (%)
- Hypotension [3]: 7 (23.3) n (%)
- Nausea [3]: 19 (63.3) n (%)
- Number of patients with ≥1 adverse event [3]: 28 (93.3) n (%)
- Rash [3]: 5 (16.7) n (%)
- Vomiting [3]: 9 (30.0) n (%)
- Alanine aminotransferase increased [4]: 2 (6.7) n (%)
- Aspartate aminotransferase increased [4]: 2 (6.7) n (%)
- Asthenia [4]: 0 n (%)
- Blood creatinine increased [4]: 0 n (%)
- Constipation [4]: 0 n (%)
- Diarrhoea [4]: 1 (3.3) n (%)
- Dry skin [4]: 0 n (%)
- Fatigue [4]: 0 n (%)
- Hypotension [4]: 1 (3.3) n (%)
- Nausea [4]: 0 n (%)
- Number of patients with ≥1 adverse event [4]: 6 (20.0) n (%)
- Rash [4]: 0 n (%)
- Vomiting [4]: 0 n (%)
- Alanine aminotransferase increased [5]: 15 (22.1) n (%)
- Aspartate aminotransferase increased [5]: 11 (16.2) n (%)
- Asthenia [5]: 13 (19.1) n (%)
- Blood creatinine increased [5]: 7 (10.3) n (%)
- Constipation [5]: 7 (10.3) n (%)
- Diarrhoea [5]: 31 (45.6) n (%)
- Dry skin [5]: 8 (11.8) n (%)
- Fatigue [5]: 14 (20.6) n (%)
- Hypotension [5]: 15 (22.1) n (%)
- Nausea [5]: 45 (66.2) n (%)
- Number of patients with ≥1 adverse event [5]: 63 (92.6) n (%)
- Rash [5]: 8 (11.8) n (%)
- Vomiting [5]: 21 (30.9) n (%)
- Alanine aminotransferase increased [6]: 4 (5.9) n (%)
- Aspartate aminotransferase increased [6]: 4 (5.9) n (%)
- Asthenia [6]: 0 n (%)
- Blood creatinine increased [6]: 0 n (%)
- Constipation [6]: 0 n (%)
- Diarrhoea [6]: 1 (1.5) n (%)
- Dry skin [6]: 0 n (%)
- Fatigue [6]: 0 n (%)
- Hypotension [6]: 6 (8.8) n (%)
- Nausea [6]: 1 (1.5) n (%)
- Number of patients with ≥1 adverse event [6]: 17 (25.0) n (%)
- Rash [6]: 0 n (%)
- Vomiting [6]: 1 (1.5) n (%)
